Numbers after ± are expanded uncertainties.
Details: for vapor or sublimation pressure: Crystal, Rate of evaporation; for Triple point temperature: From the change of vapor pressure slope

| vapor or sublimation pressure (570 K) [kPa] | vapor or sublimation pressure (580 K) [kPa] | vapor or sublimation pressure (590 K) [kPa] | vapor or sublimation pressure (600 K) [kPa] | vapor or sublimation pressure (610 K) [kPa] | vapor or sublimation pressure (620 K) [kPa] | vapor or sublimation pressure (630 K) [kPa] | vapor or sublimation pressure (640 K) [kPa] | Triple point temperature (Crystal 1) [K] | Triple point temperature (Crystal 2) [K] | Compound |
| --- | --- | --- | --- | --- | --- | --- | --- | --- | --- | --- |
| 0.004417 ± 0.00044 | 0.007462 ± 0.00075 | 0.01238 ± 0.0012 | 0.02021 ± 0.002 | 0.03245 ± 0.0032 | 0.05132 ± 0.0051 | 0.07998 ± 0.008 | 0.1229 ± 0.012 |  |  | [Cl-].[Cl-].[Cl-].[In+3] [indium chloride] |
|  |  |  |  |  |  |  |  | 701 ± 6 | 688 ± 6 | [Cl][Cu] [copper monochloride] |
